Measured values as given in patent US10660898B2, “Benzimidazole derivatives as PI3 kinase inhibitors” (GLAXOSMITHKLINE LLC, priority 2010, dated 2020).

Experiments:
BT549 = assay: Anchorage independent soft agar tumor growth assay; format: cell-based; settings: BT549 breast carcinoma; PTEN p.V275fs*1, No protein; percent of DMSO-treated control
Procedure: Cellular Assays—Cell Growth Inhibition Assay in PTEN Wild-Type or PTEN Deficient Tumor Cell Lines Twenty-two Phosphatase and Tensin Homolog (PTEN) wild-type or PTEN deficient tumor cell lines were cultured generally according to instructions supplied by cell culture supplier American Type Culture Collection, Manassas, Va., with 10% fetal bovine serum at 5% CO2 and 37° C. Cells were seeded into either a T-75 or a T-175 flask 3-4 days prior to 96-well assay plating such that the flasks were approximately 70-80% confluent of the time of harvest. Cells were harvested using 0.25% trypsin-EDTA (Invitrogen #25200056). Trypan Blue exclusion staining was used to determine cell number. Viable cells were plated in clear, flat bottom 96-well plates (BD #353075) under anchorage independent conditions at 2,000-10,000 cells per well depending on the cell line. To generate anchorage independent growth conditions, a 5% agar stock solution in water was made and autoclaved to melt and sterilize. […] The next day one plate of cells was processed at the time of compound addition to quantify the starting number of cells (T=0 or T0). […] Following the 6-day incubation, 20 μl of Alamar Blue (Invitrogen # DAL1100) was added to the cells, incubated at 5% CO2 and 37° C. for 6 hours and the plates read on a Spectramax (Gemini EM) at 530 nm (excitation) and 590 nm (emission) with the auto cut-off disabled. […]

BT474 = assay: Anchorage independent soft agar tumor growth assay; format: cell-based; settings: BT474 breast carcinoma, PTEN Wild-type, Protein
Procedure: (§1) Cellular Assays—Cell Growth Inhibition Assay in PTEN Wild-Type or PTEN Deficient Tumor Cell Lines Twenty-two Phosphatase and Tensin Homolog (PTEN) wild-type or PTEN deficient tumor cell lines were cultured generally according to instructions supplied by cell culture supplier American Type Culture Collection, Manassas, Va., with 10% fetal bovine serum at 5% CO2 and 37° C. Cells were seeded into either a T-75 or a T-175 flask 3-4 days prior to 96-well assay plating such that the flasks were approximately 70-80% confluent of the time of harvest. Cells were harvested using 0.25% trypsin-EDTA (Invitrogen #25200056). Trypan Blue exclusion staining was used to determine cell number. Viable cells were plated in clear, flat bottom 96-well plates (BD #353075) under anchorage independent conditions at 2,000-10,000 cells per well depending on the cell line. To generate anchorage independent growth conditions, a 5% agar stock solution in water was made and autoclaved to melt and sterilize. From the 5% agar solution, a 0.6% agar/media+10% fetal bovine serum (FBS) solution was made to generate a bottom agar layer in the plates to prevent cell attachment. Seventy five microliters per well of the 0.6% agar-media solution was added to the plates. After solidification, a cell solution of 266,870 to 1, 334,022 cells (depending on the cell line) in 10 ml of 0.3% agar/media+10% FBS was made and 75 μl of the cell/media/agar suspension was added to the plates. After the cell layer solidified, 50 μl of media+10% FBS was added to the top of the cells. A 0.3% Brij 35 (Sigma B4184) solution in media+10% FBS was added to column 12 as a background subtraction control. The cells were incubated overnight at 5% CO2 and 37° C. The next day one plate of cells was processed at the time of compound addition to quantify the starting number of cells (T=0 or T0). […] Three hundred microliters of media was added to the compound dilutions. Ten microliters per well of the serial dilutions was added to the cells and the plates incubated for 6 days at 5% CO2 and 37° C. […] Following the 6-day incubation, 20 μl of Alamar Blue (Invitrogen # DAL1100) was added to the cells, incubated at 5% CO2 and 37° C. for 6 hours and the plates read on a Spectramax (Gemini EM) at 530 nm (excitation) and 590 nm (emission) with the auto cut-off disabled. For analysis of cell growth inhibition dose response curves, the data was plotted as the percent of the DMSO-treated control samples (DMSO samples set to 100%). […] Values from wells containing 0.3% Brij 35 (under anchorage independent conditions) were subtracted from all samples for background correction.

HCC1395 = assay: Anchorage independent soft agar tumor growth assay; format: cell-based; settings: HCC1395 breast carcinoma, PTEN p.N212fs*3, No protein
Procedure: as §1

HCT-116 = assay: Anchorage independent soft agar tumor growth assay; format: cell-based; settings: HCT-116 colon carcinoma, PTEN Wild-type
Procedure: as §1

LOXIMVI = assay: Anchorage independent soft agar tumor growth assay; format: cell-based; settings: LOXIMVI skin melanoma, PTEN Wild-type, Protein
Procedure: as §1

U-87MG = assay: Anchorage independent soft agar tumor growth assay; format: cell-based; settings: U-87MG CNS glioblastoma, PTEN p.? (splice site mutation), No protein
Procedure: as §1

WM-115 = assay: Anchorage independent soft agar tumor growth assay; format: cell-based; settings: WM-115 skin melanoma, PTEN p.165fs*, No protein
Procedure: as §1

pAKT (pAKT/tAKT) = assay: Pharmacodynamic effects in PC-3 xenograft tumors (MSD phospho/total AKT); format: in vivo, mouse; settings: 3 mg/kg or 10 mg/kg, 1, 2, 4, 6, 8, 10, and 24 hours
Procedure: Female nude mice (Charles River Laboratories, Wilmington, Del.; strain CD-1-Foxn1, 6 weeks of age) were injected subcutaneously with 2 million PC-3 (human prostate carcinoma) cells mixed 1:1 with Matrigel in the flank. Tumors were allowed to grow for approximately 5 weeks. […] The tumor was excised. Half of each tumor was immediately processed by Medicon (BD Catalog #340592) in 1 mL Meso-Scale Discovery (MSD) lysis buffer with protease inhibitors (Roche complete protease cocktail, cat #04 693 116 001) and phosphatase inhibitors (Sigma, cat # P2850 and P-5726) for 30-60 seconds and transferred to 1.5 mL Eppendorf tubes. Tubes remained on wet ice until they were centrifuged for 10 minutes at 4° C. at maximum speed in a tabletop refrigerated centrifuge. Tumor lysates were serially diluted in 96-well polypropylene plates on wet ice. Lysates (150 μL) were loaded in row 1; rows 2-12 were loaded with 75 μL of complete Meso Scale Discovery (MSD) lysis buffer (supplied in MSD kit; # […]-3). […] Plates were washed as described above, before the addition of 150 µL of MSD read buffer and read immediately on a 6000 MSD plate reader. […] P/T AKT was calculated as shown: (phospho AKT(Ser473) signal)/[(phospho AKT(Ser473) signal)+(total AKT signal)]. […] Percent inhibition was calculated for each group as follows: 100-[(sample P/T AKT value)/(vehicle P/T AKT value)]*100.

[1] = percent of DMSO-treated control
[2] = Homo sapiens, 144 h, 6-day incubation, Alamar Blue, read-out: Compound EC50 (nM) ± StDev

## Cc1c(Cn2c(C)nc3c(C(=O)O)cc(N4CCOCC4)cc32)cccc1C(F)(F)F [Example 31, 2-methyl-1-{[2-methyl-3-(trifluoromethyl)phenol]methyl}-6-(4-morpholinyl)-1H-benzimidazole-4-carboxylic acid]
BT549
  Compound Ymin ± StDev: 52 ± 7
BT474; [1]
  Compound Ymin ± StDev: 75 ± 3
BT474; Homo sapiens, BT-474, 144 h, 6-day incubation, Alamar Blue, read-out: Compound EC50 (nM) ± StDev
  EC50: 3360 ± 868 nM
HCC1395; [1]
  Compound Ymin ± StDev: 26 ± 9
HCC1395; [2]
  EC50: 114 ± 53 nM
HCT-116; [1]
  Compound Ymin ± StDev: >80
HCT-116; [2]
  EC50: > 30700 nM
LOXIMVI; Homo sapiens, LOX IMVI, 144 h, 6-day incubation, Alamar Blue, read-out: Compound EC50 (nM) ± StDev
  EC50: > 30700 nM
LOXIMVI; [1]
  Compound Ymin ± StDev: >90
U-87MG; [2]
  EC50: 2980 ± 2770 nM
U-87MG; [1]
  Compound Ymin ± StDev: 34 ± 18
WM-115; [2]
  EC50: 8 ± 3 nM
WM-115; [1]
  Compound Ymin ± StDev: 54 ± 14
pAKT (pAKT/tAKT)
  Inhibition of the pharmacodynamic marker pAKT (pAKT/tAKT): dose dependent inhibition
